What was measured:
DENV-2 = DENV-2 replication in infected MK2 cells, viral RNA by real-time PCR; assay type: cell-based, Dengue virus serotype 2; conditions: inferred from lower inhibition percentage of low concentrations at 48 and 72 hrs versus 24 hrs
Method: The MK2 cell lines were grown in a 24-well tissue culture plate (1 × 10^5 cells/well), incubated 24 hrs under optimal conditions (37°C and 5% CO2). DENV-2 was added to the wells (MOI of 2) followed by incubation for 1 hr with gentle shaking every 10 min for optimal virus to cell contact. The virus supernatant was removed, and the cells were washed twice with fresh serum free DMEM media to remove residual virus. New complete DMEM media containing 2.5, 7.5 and 12.5 μM of PG-1 were added and the cultures were incubated for 24, 48 and 72 hrs. Afterwards, cellular supernatants were collected and stored at −80°C for viral quantification by real-time PCR.
For quantification of DENV-2 copies, the standard curve was generated by 10-fold serial dilution of known copies of DENV-2 RNA. Viral RNA was extracted from culture supernatant using QIAmp viral RNA minikit (QIAGEN, Germany) according to the manufacturer's instructions. A fragment located at the 5′UTR region of the virus genome was used to generate the primers. One-step RT-PCR using SyBr Green Master Kit (Qiagen, Germany) was used to conduct absolute quantification using ABI7300 machine from Applied Biosystems (Foster City, CA). […] Results were analyzed using Sequence Detection Software Version 1.3 (Applied Biosystems, Foster City, CA, USA).

dengue NS2B-NS3pro = dengue NS2B-NS3pro (Dengue virus type 2, UniProt P14340); experiment: Dengue NS2B-NS3pro protease inhibition assay (fluorogenic substrate Boc-Gly-Arg-Arg-MCA); assay type: biochemical, DENV-2
Chain of dengue NS2B-NS3pro (P14340 1394-1440 limits assumed): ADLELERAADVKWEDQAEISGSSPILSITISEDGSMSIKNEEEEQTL
Chain of dengue NS2B-NS3pro (P14340 1476-1660 limits assumed): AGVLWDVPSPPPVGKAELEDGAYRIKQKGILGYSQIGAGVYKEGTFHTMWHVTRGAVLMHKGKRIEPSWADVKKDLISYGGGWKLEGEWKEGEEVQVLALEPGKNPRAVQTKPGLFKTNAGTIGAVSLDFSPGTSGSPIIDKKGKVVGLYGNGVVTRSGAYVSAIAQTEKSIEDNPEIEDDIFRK
Method: The bioassay used in this study was modified from the method published by Kiat and coworkers. Reaction mixtures with total volume of 200 μL were prepared. These reaction mixtures consisted of 100 μM fluorogenic peptide substrate (Boc-Gly-Arg-Arg-MCA), 2 μM NS2B-NS3pro complex, with or without PG-1 of varying concentrations, buffered at pH 8.5 with 200 mM Tris-HCl. The PG-1 was initially prepared in Tris-HCl buffer and assayed at five different concentrations. The reaction mixtures without fluorogenic peptide substrate were firstly incubated at 37°Cfor 30 minutes. Subsequently, the substrate was added and the mixture was further incubated at the same temperature for 30 minutes. Triplicates were performed for all measurements and the readings were taken using Tecan Infinite M200 Pro fluorescence spectrophotometer. Substrate cleavage was optimized at the emission at 440 nm upon excitation at 350 nm. The readings were then used for calculating Km values of peptide substrate and IC50 values of peptide inhibitors using nonlinear regression models in GraphPad Prism 5.01 software.

**Q.** Which “PG-1 stability in culture media” value (DENV-2) does the source give for `CC(C)C[C@H](NC(=O)[C@H](CCCNC(=N)N)NC(=O)CNC(=O)CNC(=O)[C@@H](N)CCCNC(=N)N)C(=O)N[C@H]1CSSC[C@@H](C(=O)N[C@H](C(=O)NCC(=O)N[C@@H](CCCNC(=N)N)C(N)=O)C(C)C)NC(=O)[C@H](C(C)C)NC(=O)[C@@H]2CSSC[C@H](NC(=O)[C@H](Cc3ccc(O)cc3)NC1=O)C(=O)N[C@@H](CCCNC(=N)N)C(=O)N[C@@H](CCCNC(=N)N)C(=O)N[C@@H](CCCNC(=N)N)C(=O)N[C@@H](Cc1ccccc1)C(=O)N2` [PG-1] here?
**A.** declined with longer incubation in culture media

**Q.** And the IC50 (dengue NS2B-NS3pro; 2 μM NS2B-NS3pro, 100 μM Boc-Gly-Arg-Arg-MCA, 200 mM Tris-HCl pH 8.5, 37°C, 30 min pre-incubation + 30 min, triplicates, nonlinear regression GraphPad Prism)?
**A.** 11.7 µM

**Q.** What about the inhibition at 40 µM (dengue NS2B-NS3pro; PG-1 at 40 μM, assayed at five concentrations, 10–160 μM) of the same compound?
**A.** 95.7%

**Q.** What about the Ki (dengue NS2B-NS3pro; kinetic assay, PG-1 0, 2.5, 5, 10 and 20 μM, Michaelis-Menten nonlinear regression, GraphPad Prism, read-out: Ki (inhibition constant)) of the same compound?
**A.** 5.85 µM
